Data: the supplement of paper PMC11451515

What was measured:
Conditions in all cases: 48 h
[1] = system: SEM cells; experiment: cell viability relative to DMSO control; higher = less cytotoxic
Procedure, shortened: (§1)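 Viability was expressed as a per-plate percentage of DMSO wells, with cell-free wells as background. Leukemia cells (NOMO1 or SEM at 500 cells/well, P12-Ichikawa at 1000 cells/well) were adapted for at least four passages in each medium and seeded in 1536-well plates (5 μl). Library compounds in DMSO were pin-dosed over an 11-point threefold series from 47 μM to 0.79 nM, and CellTiter-Glo One luminescence was read after 48 h at 37°C.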

[2] = system: NOMO1; experiment: as above
Procedure, shortened: as §1

[3] = system: P12-Ichikawa; experiment: as above
Procedure, shortened: as §1

[4] = system: SEM cells; experiment: AUC of viability dose-response curve (% viability x log10 dose units); higher = less sensitive
Procedure, shortened: (§2)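 Leukemia cells adapted to each medium were seeded in 1536-well plates (500 or 1000 cells/well). They were dosed with library compounds in DMSO at 11 threefold doses, 47 μM to 0.79 nM, for 48 h at 37°C. CellTiter-Glo One luminescence was normalised per plate to DMSO and cell-free wells. Area under the curve was integrated by trapezoidal rule over log10 doses on a four-parameter log-logistic fit; curves exceeding full viability were scaled and curves failing quality control removed.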

[5] = system: NOMO1; experiment: as above
Procedure, shortened: as §2

[6] = system: P12-Ichikawa; experiment: as above
Procedure, shortened: as §2

O=C1\C=C/C[C@@H]2[C@H]3CCCN4CCC[C@@H](CN12)[C@@H]34
cell viability [%]
Conditions | [1] | [2] | [3]
HPLM + 10% dialyzed FBS, 0.000781 µM | 109 | 116 | 98.2
HPLM + 10% dialyzed FBS, 0.00234 µM | 113 | 110 | 103
HPLM + 10% dialyzed FBS, 0.00702 µM | 111 | 117 | 107
HPLM + 10% dialyzed FBS, 0.0211 µM | 112 | 106 | 101
HPLM + 10% dialyzed FBS, 0.0632 µM | 99.6 | 125 | 108
HPLM + 10% dialyzed FBS, 0.19 µM | 105 | 107 | 99.2
HPLM + 10% dialyzed FBS, 0.569 µM | 117 | 101 | 98.1
HPLM + 10% dialyzed FBS, 1.71 µM | 112 | 107 | 104
HPLM + 10% dialyzed FBS, 5.12 µM | 93.4 | 121 | 98.9
HPLM + 10% dialyzed FBS, 15.4 µM | 102 | 89.2 | 99.1
HPLM + 10% dialyzed FBS, 46.1 µM | 101 | 104 | 89.6
RPMI 5 mM glucose + 10% FBS, 0.000781 µM | 90.8 | 90.2 | 103
RPMI 5 mM glucose + 10% FBS, 0.00234 µM | 77.1 | 94.3 | 116
RPMI 5 mM glucose + 10% FBS, 0.00702 µM | 103 | 97.1 | 109
RPMI 5 mM glucose + 10% FBS, 0.0211 µM | 108 | 90.9 | 101
RPMI 5 mM glucose + 10% FBS, 0.0632 µM | 101 | 95.4 | 98.5
RPMI 5 mM glucose + 10% FBS, 0.19 µM | 59.3 | 93 | 94.8
RPMI 5 mM glucose + 10% FBS, 0.569 µM | 99.5 | 93.4 | 98.5
RPMI 5 mM glucose + 10% FBS, 1.71 µM | 107 | 85.9 | 85.7
RPMI 5 mM glucose + 10% FBS, 5.12 µM | 87.1 | 91.8 | 93.5
RPMI 5 mM glucose + 10% FBS, 15.4 µM | 88.6 | 93 | 96.8
RPMI 5 mM glucose + 10% FBS, 46.1 µM | 95.7 | 93.4 | 89.7
RPMI 5 mM glucose + 10% dialyzed FBS, 0.000781 µM | 89.1 | 106 | 102
RPMI 5 mM glucose + 10% dialyzed FBS, 0.00234 µM | 108 | 107 | 98.5
RPMI 5 mM glucose + 10% dialyzed FBS, 0.00702 µM | 101 | 103 | 97.8
RPMI 5 mM glucose + 10% dialyzed FBS, 0.0211 µM | 115 | 116 | 105
RPMI 5 mM glucose + 10% dialyzed FBS, 0.0632 µM | 108 | 94.1 | 98.4
RPMI 5 mM glucose + 10% dialyzed FBS, 0.19 µM | 81.8 | 104 | 94
RPMI 5 mM glucose + 10% dialyzed FBS, 0.569 µM | 106 | 90.3 | 105
RPMI 5 mM glucose + 10% dialyzed FBS, 1.71 µM | 118 | 106 | 95.7
RPMI 5 mM glucose + 10% dialyzed FBS, 5.12 µM | 105 | 105 | 100
RPMI 5 mM glucose + 10% dialyzed FBS, 15.4 µM | 98.9 | 98.9 | 94.3
RPMI 5 mM glucose + 10% dialyzed FBS, 46.1 µM | 92.2 | 86.6 | 86.8

AUC of viability dose-response curve
Conditions | [4] | [5] | [6]
HPLM + 10% dialyzed FBS | 465 | 456 | 473
RPMI 5 mM glucose + 10% FBS | 441 | 442 | 429
RPMI 5 mM glucose + 10% dialyzed FBS | 476 | 448 | 469
